Structures can show the parent of a compound that is named as a salt.
Experiments:
Test in all cases: cell viability (% survival relative to DMSO control); higher = less cytotoxic
Settings in all cases: 72 h
MV4-11 = test system: MV4-11
Method: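 8x8 drug-combination matrices (0–5000 nM; rosiglitazone and lestaurtinib 0–1000 nM) were run in MV4-11 cells for 72 h with CellTiter-Glo read-out. Survival is normalised to DMSO and 10 µM bortezomib and clipped at 100%.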

Mono-Mac-6 = test system: Mono-Mac-6
Method: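 8x8 drug-combination matrices (0–5000 nM; rosiglitazone and lestaurtinib 0–1000 nM) were run in Mono-Mac-6 cells for 72 h with CellTiter-Glo read-out. Survival is normalised to DMSO and 10 µM bortezomib and clipped at 100%.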

HL-60 = test system: HL-60
Method: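 8x8 drug-combination matrices (0-5000 nM; rosiglitazone and lestaurtinib 0-1000 nM) were run in HL-60 cells for 72 h with a CellTiter-Glo read-out. Survival is normalised to DMSO and 10 µM bortezomib and clipped at 100%. Bliss synergy was analysed in SynergyFinder.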

CN(CCOc1ccc(Cc2sc(O)nc2O)cc1)c1ccccn1 [Rosiglitazone] + c1cc(-c2cnn3cc(-c4ccc(OCCN5CCCCC5)cc4)cnc23)ccn1 [Dorsomorphin]
cell viability [%]
Settings | drug1 concentration 1 nM | drug1 concentration 5 nM | drug1 concentration 10 nM | drug1 concentration 50 nM | drug1 concentration 100 nM | drug1 concentration 500 nM | drug1 concentration 1000 nM
HL-60, drug2 concentration 5 nM | > 100 | 95 | 74 | > 100 | > 100 | 94.8 | > 100
HL-60, drug2 concentration 10 nM | > 100 | > 100 | > 100 | > 100 | > 100 | > 100 | > 100
HL-60, drug2 concentration 50 nM | 94.3 | > 100 | > 100 | > 100 | 81.2 | > 100 | > 100
HL-60, drug2 concentration 100 nM | 91.4 | > 100 | > 100 | > 100 | > 100 | > 100 | > 100
HL-60, drug2 concentration 500 nM | 90.8 | > 100 | 84.6 | > 100 | > 100 | 60.9 | > 100
HL-60, drug2 concentration 1000 nM | 88 | > 100 | 40.1 | > 100 | 86.7 | 87.6 | 96.3
HL-60, drug2 concentration 5000 nM | 12.7 | 33.1 | 33.7 | 24.4 | 65.7 | 82.5 | 90.1
MV4-11, drug2 concentration 5 nM | 96.5 | > 100 | > 100 | 98.4 | > 100 | > 100 | > 100
MV4-11, drug2 concentration 10 nM | > 100 | 97.3 | > 100 | 93.5 | > 100 | 83.4 | > 100
MV4-11, drug2 concentration 50 nM | > 100 | 98.2 | > 100 | > 100 | 84.9 | > 100 | > 100
MV4-11, drug2 concentration 100 nM | 98.3 | 98.1 | 99.6 | > 100 | > 100 | > 100 | 85.3
MV4-11, drug2 concentration 500 nM | 99 | 45.9 | 46.8 | 45.7 | 49 | 13 | 43.8
MV4-11, drug2 concentration 1000 nM | 26.1 | 20.7 | 21.6 | 23.8 | 7.5 | 23.4 | 16.8
MV4-11, drug2 concentration 5000 nM | 2.86 | 4.57 | 4.91 | 7.17 | 6.15 | 6.58 | 5.32
Mono-Mac-6, drug2 concentration 5 nM | > 100 | > 100 | 93 | > 100 | 89 | 49.2 | 33.8
Mono-Mac-6, drug2 concentration 10 nM | > 100 | 85.1 | 84.3 | 84.5 | 76 | 36.1 | 32.6
Mono-Mac-6, drug2 concentration 50 nM | 87.3 | 81.8 | 78.8 | 94.7 | 85.6 | 47.2 | 33.5
Mono-Mac-6, drug2 concentration 100 nM | 68.8 | > 100 | 84.1 | 74.5 | 81.5 | 28.7 | 31.1
Mono-Mac-6, drug2 concentration 500 nM | 78.1 | 59.9 | 54.8 | 60.7 | 53.5 | 22.8 | 6.36
Mono-Mac-6, drug2 concentration 1000 nM | 42.4 | 38.6 | 35.9 | 47.5 | 37.7 | 11.6 | 9.67
Mono-Mac-6, drug2 concentration 5000 nM | 6.04 | 9.54 | 9.61 | 9.94 | 12.2 | 5.66 | 12.4

CN(CCOc1ccc(Cc2sc(O)nc2O)cc1)c1ccccn1 [Rosiglitazone] + CC(C)(Cc1ccccc1)NCC(O)c1ccc(O)c(NS(C)(=O)=O)c1 [Zinterol hydrochloride]
cell viability [%]
Settings | drug1 concentration 1 nM | drug1 concentration 5 nM | drug1 concentration 10 nM | drug1 concentration 50 nM | drug1 concentration 100 nM | drug1 concentration 500 nM | drug1 concentration 1000 nM
HL-60, drug2 concentration 5 nM | 87.9 | 41.2 | > 100 | 97.5 | > 100 | > 100 | > 100
HL-60, drug2 concentration 10 nM | 63.4 | 95.3 | > 100 | > 100 | 62.7 | > 100 | > 100
HL-60, drug2 concentration 50 nM | 83.3 | 83 | 83.9 | > 100 | 58.8 | > 100 | 92.8
HL-60, drug2 concentration 100 nM | > 100 | 92.2 | 90.1 | > 100 | 80.5 | 78.9 | > 100
HL-60, drug2 concentration 500 nM | 90.1 | > 100 | > 100 | 95.3 | > 100 | 72.1 | 80.8
HL-60, drug2 concentration 1000 nM | 40.6 | > 100 | > 100 | > 100 | > 100 | 60.1 | > 100
HL-60, drug2 concentration 5000 nM | 59.8 | 94.4 | > 100 | > 100 | > 100 | > 100 | 97.7
MV4-11, drug2 concentration 5 nM | > 100 | 97.6 | 93.9 | 77.8 | > 100 | > 100 | > 100
MV4-11, drug2 concentration 10 nM | > 100 | > 100 | > 100 | > 100 | > 100 | 89.1 | > 100
MV4-11, drug2 concentration 50 nM | 97 | 96.9 | 91.9 | > 100 | > 100 | 94 | > 100
MV4-11, drug2 concentration 100 nM | > 100 | > 100 | > 100 | > 100 | 93 | 96.1 | > 100
MV4-11, drug2 concentration 500 nM | 99.9 | > 100 | 98.7 | > 100 | > 100 | 87.2 | 98.8
MV4-11, drug2 concentration 1000 nM | > 100 | 70.6 | 96.2 | > 100 | 91.6 | 95.1 | > 100
MV4-11, drug2 concentration 5000 nM | 95 | > 100 | 98.5 | > 100 | > 100 | > 100 | > 100
Mono-Mac-6, drug2 concentration 5 nM | 83 | 77.8 | > 100 | 79.7 | 78.7 | 27.6 | 21.7
Mono-Mac-6, drug2 concentration 10 nM | 66.3 | 76 | 74.4 | 89.6 | 60.8 | 20.5 | 24.5
Mono-Mac-6, drug2 concentration 50 nM | 86.8 | 79.1 | 74.5 | 76.7 | 45.8 | 29.2 | 28.8
Mono-Mac-6, drug2 concentration 100 nM | 70.8 | 77.4 | 78.3 | 62.9 | 49.7 | 28 | 18.9
Mono-Mac-6, drug2 concentration 500 nM | 74.7 | 67.8 | 67.6 | 66.1 | 47.9 | 28.4 | 27.1
Mono-Mac-6, drug2 concentration 1000 nM | 76.3 | 86.7 | 74.7 | 66.2 | 45.4 | 20.5 | 32.7
Mono-Mac-6, drug2 concentration 5000 nM | 55.9 | 64.8 | 51.4 | 46.9 | 49.4 | 22 | 0

Source: the supplement of paper PMC8671470
